Measured values from patent publication US20240327381A1, “Compounds and Compositions for Selective Degradation of Engineered Proteins” (Celgene Corporation, priority 2023, published 2024).
Where two headings read alike, the source gives them in different places.

What was measured:
[1] = biological target: T1, IKZF1 ZNF2_ZNF3 Q1F degron-tagged CD19 CAR (Homo sapiens, UniProt Q13422, Q146F); assay: Degradation of Q1F degron-tagged CD19 CAR in Jurkat cells (flow cytometry of CAR levels); type: cell-based; conditions: for DC50: Jurkat cells expressing CD19 CAR tagged with IKZF1 ZNF2_ZNF3 Q1F, 18 hours at 37° C., CAR levels normalized to untreated cells, read-out: Q1F Jurkat IC50; for Dmax: read-out: Q1F Jurkat-YMax
T1 construct: ZNF2_ZNF3 Q1F degron (GERPFFCNQCGASFTQKGNLLRHIKLHSGEKPFKCHLCNYACRRRDALTGHLRTHS); fused on or other part: anti-CD19 scFv, CD28 transmembrane domain, 4-1BB costimulatory domain, CD3 zeta signaling domain (the CAR that carries the degron), and Nluc
T1 sequence (Q13422 whole entry Q146F, the tested form may be a part): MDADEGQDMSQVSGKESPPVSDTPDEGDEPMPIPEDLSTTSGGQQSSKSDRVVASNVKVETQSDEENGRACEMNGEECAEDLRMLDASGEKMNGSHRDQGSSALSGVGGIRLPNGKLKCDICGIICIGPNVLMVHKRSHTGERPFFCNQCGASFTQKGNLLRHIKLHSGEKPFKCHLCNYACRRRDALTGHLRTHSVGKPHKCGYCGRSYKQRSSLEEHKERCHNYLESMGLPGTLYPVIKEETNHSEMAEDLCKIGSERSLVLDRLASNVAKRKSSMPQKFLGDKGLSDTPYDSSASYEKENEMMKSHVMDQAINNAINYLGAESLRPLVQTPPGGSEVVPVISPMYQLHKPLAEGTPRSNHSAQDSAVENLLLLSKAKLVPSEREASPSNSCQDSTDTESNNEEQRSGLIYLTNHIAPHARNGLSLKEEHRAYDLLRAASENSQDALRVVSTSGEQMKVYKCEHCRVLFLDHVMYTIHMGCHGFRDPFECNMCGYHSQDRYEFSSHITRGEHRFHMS
How it was run: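 Jurkat cells were lentivirally transduced with an anti-CD19 scFv/CD28 TM/4-1BB/CD3ζ CAR tagged with an IKZF1 ZNF2_ZNF3 Q1F degron–Nluc, then treated with compound titrations for 18 h at 37 °C. CAR surface levels were stained (20 min, 4 °C), read by flow cytometry and normalised to untreated cells. EC50 came from a four-parameter logistic fit; Ymin is the minimum % CAR remaining.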

Helios = biological target: T2, Helios (Homo sapiens, UniProt Q9UKS7); assay: Helios degradation in Jurkat/Helios/HiBit cells (Nano-Glo luminescence); type: cell-based; conditions: 18 hr, read-out: Helios Jurkat Hibit IC50
T2 construct: endogenous in cells; host or cells: Jurkat cells, CRISPR/Cas9 knock-in of HiBit at the IKZF2 locus
T2 sequence (Q9UKS7 whole entry): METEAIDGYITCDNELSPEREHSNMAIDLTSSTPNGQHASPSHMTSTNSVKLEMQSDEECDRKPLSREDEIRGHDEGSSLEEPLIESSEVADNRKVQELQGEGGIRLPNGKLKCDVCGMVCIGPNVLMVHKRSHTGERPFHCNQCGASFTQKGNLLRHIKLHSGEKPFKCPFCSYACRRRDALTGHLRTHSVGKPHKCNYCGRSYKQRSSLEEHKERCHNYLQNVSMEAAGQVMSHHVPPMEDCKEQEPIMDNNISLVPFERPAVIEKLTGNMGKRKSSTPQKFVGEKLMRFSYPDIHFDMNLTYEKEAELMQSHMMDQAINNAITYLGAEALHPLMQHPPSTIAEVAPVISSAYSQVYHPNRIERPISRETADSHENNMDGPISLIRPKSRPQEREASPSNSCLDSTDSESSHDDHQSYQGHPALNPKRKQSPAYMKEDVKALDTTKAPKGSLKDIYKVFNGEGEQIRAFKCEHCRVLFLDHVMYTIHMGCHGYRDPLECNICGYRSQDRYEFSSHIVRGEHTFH
T2 sequence (Q96SW2 whole entry, further chain): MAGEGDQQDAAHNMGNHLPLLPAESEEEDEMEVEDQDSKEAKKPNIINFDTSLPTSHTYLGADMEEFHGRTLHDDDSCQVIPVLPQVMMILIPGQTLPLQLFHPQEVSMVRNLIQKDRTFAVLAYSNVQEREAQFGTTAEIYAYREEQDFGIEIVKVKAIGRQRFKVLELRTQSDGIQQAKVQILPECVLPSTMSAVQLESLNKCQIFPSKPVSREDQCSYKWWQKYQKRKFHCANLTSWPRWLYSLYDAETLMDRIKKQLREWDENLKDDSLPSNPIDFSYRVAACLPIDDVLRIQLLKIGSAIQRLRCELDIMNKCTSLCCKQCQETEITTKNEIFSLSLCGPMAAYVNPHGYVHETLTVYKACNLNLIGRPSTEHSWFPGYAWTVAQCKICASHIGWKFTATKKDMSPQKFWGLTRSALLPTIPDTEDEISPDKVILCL
T2 sequence (Q16531 whole entry partner): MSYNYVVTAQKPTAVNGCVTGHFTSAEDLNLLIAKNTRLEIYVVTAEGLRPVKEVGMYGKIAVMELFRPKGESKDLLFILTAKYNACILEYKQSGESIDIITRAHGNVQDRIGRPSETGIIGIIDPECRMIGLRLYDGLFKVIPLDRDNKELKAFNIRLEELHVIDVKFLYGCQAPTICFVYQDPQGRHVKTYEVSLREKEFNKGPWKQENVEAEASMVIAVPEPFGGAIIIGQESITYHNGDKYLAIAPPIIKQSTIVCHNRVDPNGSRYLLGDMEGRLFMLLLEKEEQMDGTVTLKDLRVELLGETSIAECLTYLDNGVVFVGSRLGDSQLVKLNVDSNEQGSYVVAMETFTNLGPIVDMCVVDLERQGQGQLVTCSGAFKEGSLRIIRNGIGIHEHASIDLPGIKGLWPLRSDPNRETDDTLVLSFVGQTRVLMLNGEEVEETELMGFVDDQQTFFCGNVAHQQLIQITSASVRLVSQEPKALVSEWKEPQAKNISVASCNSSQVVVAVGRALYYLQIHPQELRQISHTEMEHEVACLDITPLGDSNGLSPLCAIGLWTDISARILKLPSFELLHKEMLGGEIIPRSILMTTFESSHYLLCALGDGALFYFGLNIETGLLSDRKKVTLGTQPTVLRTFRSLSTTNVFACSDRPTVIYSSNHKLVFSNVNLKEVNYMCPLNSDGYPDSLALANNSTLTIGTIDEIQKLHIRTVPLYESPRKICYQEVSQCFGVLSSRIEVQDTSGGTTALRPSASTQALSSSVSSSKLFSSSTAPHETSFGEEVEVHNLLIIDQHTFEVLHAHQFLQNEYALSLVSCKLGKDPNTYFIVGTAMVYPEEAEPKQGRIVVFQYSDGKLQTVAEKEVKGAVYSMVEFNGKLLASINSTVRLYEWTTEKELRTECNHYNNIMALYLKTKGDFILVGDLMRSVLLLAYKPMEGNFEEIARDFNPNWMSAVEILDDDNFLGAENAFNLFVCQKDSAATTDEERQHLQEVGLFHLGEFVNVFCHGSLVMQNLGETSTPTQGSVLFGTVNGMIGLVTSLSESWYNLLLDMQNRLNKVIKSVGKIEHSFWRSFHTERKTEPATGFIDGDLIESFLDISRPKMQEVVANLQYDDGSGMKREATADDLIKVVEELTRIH
How it was run: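 Jurkat cells carrying CRISPR-knocked-in C-terminal HiBit-tagged endogenous IKZF2 were treated with compound in DMEM/10% FCS (10,000 cells/well) for 18 h at 37 °C. HiBit signal was read by Nano-Glo luminescence after 30 min at RT. EC50 for degradation came from a four-parameter logistic fit, with Ymax as % protein degraded.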

[2] = Ymax is the % protein degraded, Jurkat cells expressing Q1F degron-tagged CD19 CAR, 18 hours

SMILES | DC50 [1] [nM] | Dmax [1, 2] [%] | DC50 (Helios) [nM] | Dmax ([1]; Jurkat, 18 h) [%]
CS(=O)(=O)NCCN1CCC(c2c(F)cc3c(c2F)CN(C2CCC(=O)NC2=O)C3=O)CC1 (stereo not drawn) [Compound 98, N-(2-(4-(2-(2,6-dioxopiperidin-3-yl)-4,6-difluoro-1-oxoisoindolin-5-yl)piperidin-1-yl)ethyl)methanesulfonamide] | 39.8 | 76.9 | ≥ 10000 | –
COc1cccc(CN2CCC(O)(c3c(F)cc4c(c3F)CN(C3CCC(=O)NC3=O)C4=O)CC2)n1 (stereo not drawn) [Compound 38, 3-(4,6-difluoro-5-(4-hydroxy-1-((6-methoxypyridin-2-yl)methyl)piperidin-4-yl)-1-oxoisoindolin-2-yl)piperidine-2,6-dione] | 24.5 | 70.7 | ≥ 10000 | –
Cc1cc(Br)cnc1C(=O)N1CCC(c2c(F)cc3c(c2F)CN(C2CCC(=O)NC2=O)C3=O)CC1 (stereo not drawn) [Compound 66, 3-(5-(1-(5-bromo-3-methylpicolinoyl)piperidin-4-yl)-4,6-difluoro-1-oxoisoindolin-2-yl) piperidine-2,6-dione] | 46.1 | 74.9 | ≥ 10000 | –
O=C1CCC(N2Cc3c(cc(F)c(C4(O)CCN(Cc5ccc(C(F)F)cc5)CC4)c3F)C2=O)C(=O)N1 (stereo not drawn) [Compound 19, 3-(5-(1-(4-(difluoromethyl)benzyl)-4-hydroxypiperidin-4-yl)-4,6-difluoro-1-oxoisoindolin-2-yl)piperidine-2,6-dione] | 5.41 | 83.3 | ≥ 10000 | –
CNc1ccc2c(n1)CN(C(=O)c1c(F)cc3c(c1F)CN(C1CCC(=O)NC1=O)C3=O)C2 (stereo not drawn) [Compound 73, 3-[4,6-difluoro-5-[2-(methylamino)-5,7-dihydropyrrolo[3,4-b]pyridine-6-carbonyl]-1-oxo-isoindolin-2-yl]piperidine-2,6-dione] | 3.11 | – | ≥ 10000 | 95.3
O=C1CCC(N2Cc3c(cc(F)c(C4(O)CCN(Cc5cccc(C(F)(F)F)c5)CC4)c3F)C2=O)C(=O)N1 (stereo not drawn) [Compound 26, 3-(4,6-difluoro-5-(4-hydroxy-1-(3-(trifluoromethyl)benzyl)piperidin-4-yl)-1-oxoisoindolin-2-yl)piperidine-2,6-dione] | 6.42 | 78.2 | ≥ 10000 | –
COc1ccc(CN2CCC(O)(c3c(F)cc4c(c3F)CN(C3CCC(=O)NC3=O)C4=O)CC2)nc1 (stereo not drawn) [Compound 37, 3-(4,6-difluoro-5-(4-hydroxy-1-((5-methoxypyridin-2-yl)methyl)piperidin-4-yl)-1-oxoisoindolin-2-yl)piperidine-2,6-dione] | 33.2 | 62.5 | ≥ 10000 | –
O=C1CCC(N2Cc3c(cc(F)c(C(=O)N4Cc5cccnc5C4)c3F)C2=O)C(=O)N1 (stereo not drawn) [Compound 77, 3-(5-(6,7-dihydro-5H-pyrrolo[3,4-b]pyridine-6-carbonyl)-4,6-difluoro-1-oxoisoindolin-2-yl)piperidine-2,6-dione] | 14.8 | 94.8 | ≥ 10000 | –
O=C1CCC(N2Cc3c(cc(F)c(C4(O)CCN(CC5CCCCC5)CC4)c3F)C2=O)C(=O)N1 (stereo not drawn) [Compound 33, 3-(5-(1-(cyclohexylmethyl)-4-hydroxypiperidin-4-yl)-4,6-difluoro-1-oxoisoindolin-2-yl)piperidine-2,6-dione] | 192 | 60.4 | ≥ 10000 | –
COCCOCCN1CCC(c2c(F)cc3c(c2F)CN(C2CCC(=O)NC2=O)C3=O)CC1 (stereo not drawn) [Compound 100, 3-(4,6-difluoro-5-(1-(2-(2-methoxyethoxy)ethyl)piperidin-4-yl)-1-oxoisoindolin-2-yl)piperidine-2,6-dione] | 22.6 | 75.5 | ≥ 10000 | –
O=C1CCC(N2Cc3c(cc(F)c(C4C[C@H]5CC[C@@H](C4)N5Cc4ccc(C(F)F)cc4)c3F)C2=O)C(=O)N1 (stereo partly drawn) [Compound 128, 3-(5-((1R,5S)-8-(4-(difluoromethyl)benzyl)-8-azabicyclo[3.2.1]octan-3-yl)-4,6-difluoro-1-oxoisoindolin-2-yl)piperidine-2,6-dione] | 17.4 | 87.2 | ≥ 10000 | –
O=C1CCC(N2Cc3c(cc(F)c(CNC(=O)c4ccc5c(c4)CCC5)c3F)C2=O)C(=O)N1 (stereo not drawn) [Compound 92, N-((2-(2,6-dioxopiperidin-3-yl)-4,6-difluoro-1-oxoisoindolin-5-yl)methyl)-2,3-dihydro-1H-indene-5-carboxamide] | 9.16 | 63.2 | ≥ 10000 | –
O=C1CC[C@H](N2Cc3c(cc(F)c(C4CC5CCC(C4)N5Cc4ccc5ncsc5c4)c3F)C2=O)C(=O)N1 (stereo partly drawn) [Compound 126, (3S)-3-(5-(8-(benzo[d]thiazol-6-ylmethyl)-8-azabicyclo[3.2.1]octan-3-yl)-4,6-difluoro-1-oxoisoindolin-2-yl)piperidine-2,6-dione] | 0.427 | 92.2 | ≥ 10000 | –
Cc1ccc(CN2CCC(O)(c3c(F)cc4c(c3F)CN(C3CCC(=O)NC3=O)C4=O)CC2)cc1F (stereo not drawn) [Compound 28, 3-(4,6-difluoro-5-(1-(3-fluoro-4-methylbenzyl)-4-hydroxypiperidin-4-yl)-1-oxoisoindolin-2-yl)piperidine-2,6-dione] | 4.78 | 79.4 | ≥ 10000 | –
O=C1CCC(N2Cc3c(cc(F)c(C4(O)CCN(Cc5ccc6ccccc6n5)CC4)c3F)C2=O)C(=O)N1 (stereo not drawn) [Compound 29, 3-(4,6-difluoro-5-(4-hydroxy-1-(quinolin-2-ylmethyl)piperidin-4-yl)-1-oxoisoindolin-2-yl)piperidine-2,6-dione] | 6.42 | 87 | ≥ 10000 | –

Continued, in another order:

DC50 [1] [nM] | Dmax [1, 2] [%] | DC50 (Helios) [nM] | SMILES | Dmax ([1]; Jurkat, 18 h) [%]
0.114 | 93.3 | ≥ 10000 | O=C1CCC(N2Cc3c(cc(F)c(C4CCN(Cc5ccc6scnc6c5)CC4)c3F)C2=O)C(=O)N1 (stereo not drawn) [Compound 54, 3-(5-(1-(benzo[d]thiazol-5-ylmethyl)piperidin-4-yl)-4,6-difluoro-1-oxoisoindolin-2-yl)piperidine-2,6-dione] | –
0.168 | 92.6 | ≥ 10000 | CS(=O)(=O)c1ccc(CN2CCC(c3c(F)cc4c(c3F)CN(C3CCC(=O)NC3=O)C4=O)CC2)cc1 (stereo not drawn) [Compound 62, 3-(4,6-difluoro-5-(1-(4-(methylsulfonyl)benzyl)piperidin-4-yl)-1-oxoisoindolin-2-yl)piperidine-2,6-dione] | –
83.5 | 75.3 | ≥ 10000 | O=C1CCC(N2Cc3c(cc(F)c(C4CCN(Cc5nc(C(F)(F)F)cs5)CC4)c3F)C2=O)C(=O)N1 (stereo not drawn) [Compound 105, 3-(4,6-difluoro-1-oxo-5-(1-((4-(trifluoromethyl)thiazol-2-yl)methyl)piperidin-4-yl)isoindolin-2-yl)piperidine-2,6-dione] | –
2.24 | 87.8 | ≥ 10000 | Cc1cc(Br)cnc1CN1CCC(c2c(F)cc3c(c2F)CN(C2CCC(=O)NC2=O)C3=O)CC1 (stereo not drawn) [Compound 48, 3-(5-(1-((5-bromo-3-methylpyridin-2-yl)methyl)piperidin-4-yl)-4,6-difluoro-1-oxoisoindolin-2-yl)piperidine-2,6-dione] | –
2.73 | 82.5 | ≥ 10000 | CC(C)CCN1CCC(c2c(F)cc3c(c2F)CN(C2CCC(=O)NC2=O)C3=O)CC1 (stereo not drawn) [Compound 113, 3-(4,6-difluoro-5-(1-isopentylpiperidin-4-yl)-1-oxoisoindolin-2-yl)piperidine-2,6-dione] | –
0.727 | 93.3 | ≥ 10000 | O=C1CCC(N2Cc3c(cc(F)c(C4CCN(Cc5ccc6ccccc6n5)CC4)c3F)C2=O)C(=O)N1 (stereo not drawn) [Compound 53, 3-(4,6-difluoro-1-oxo-5-(1-(quinolin-2-ylmethyl)piperidin-4-yl)isoindolin-2-yl)piperidine-2,6-dione] | –
6.26 | 86.1 | ≥ 10000 | O=C1CCC(N2Cc3c(cc(F)c(C4CCN(Cc5ccncc5)CC4)c3F)C2=O)C(=O)N1 (stereo not drawn) [Compound 117, 3-(4,6-difluoro-1-oxo-5-(1-(pyridin-4-ylmethyl)piperidin-4-yl)isoindolin-2-yl)piperidine-2,6-dione] | –
2.74 | 89.1 | ≥ 10000 | O=C1CCC(N2Cc3c(cc(F)c(C4CCN(Cc5ccnn5-c5ccccc5)CC4)c3F)C2=O)C(=O)N1 (stereo not drawn) [Compound 9, 3-(4,6-difluoro-1-oxo-5-(1-((1-phenyl-1H-pyrazol-5-yl)methyl)piperidin-4-yl)isoindolin-2-yl)piperidine-2,6-dione] | –
10.7 | 86.3 | ≥ 10000 | O=C1CCC(N2Cc3c(cc(F)c(C4CCN(Cc5nc6ccccc6s5)CC4)c3F)C2=O)C(=O)N1 (stereo not drawn) [Compound 58, 3-(5-(1-(benzo[d]thiazol-2-ylmethyl)piperidin-4-yl)-4,6-difluoro-1-oxoisoindolin-2-yl)piperidine-2,6-dione] | –
2.5 | 88.8 | ≥ 10000 | O=C1CCC(N2Cc3c(cc(F)c(C4CCN(Cc5cc(F)ccc5-n5cccn5)CC4)c3F)C2=O)C(=O)N1 (stereo not drawn) [Compound 47, 3-(4,6-difluoro-5-(1-(5-fluoro-2-(1H-pyrazol-1-yl)benzyl)piperidin-4-yl)-1-oxoisoindolin-2-yl)piperidine-2,6-dione] | –
